Test [1] has as its target T1, c-Met (cytoplasmic domain) (Homo sapiens, UniProt P08581).
T1 construct: Reactions were initiated with 30 ng/mL c-Met (cytoplasmic domain, Invitrogen Corporation #PV3143); purchased Invitrogen Corporation PV3143
In words: c-Met Kinase Assay (ELISA/TRF, PLC-γ substrate). The note with it: 3 μM ATP (Km level); read-out: c-Met Kinase Inhibition (IC50). It is filed as biochemical. In outline: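 Readout is TRF of europium anti-phosphotyrosine (PT66) bound to GST–PLC-γ substrate coated at 10 μg/mL, after a 15 min, 37 °C reaction started with 30 ng/mL c-Met cytoplasmic domain. Percent inhibition plotted against log compound concentration and fitted (variable slope) for IC50.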

In test [2] the target is baculovirus-expressed ALK (Homo sapiens, UniProt Q9UM73). In words: ALK Kinase Assay (ELISA/TRF, PLC-γ substrate). Note: 1 µM ATP (Km level). The format is biochemical. The note with it: read-out: ALK Kinase Inhibition (IC50). In outline:
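ALK at 30 ng/ml phosphorylated plate-bound PLC-γ–GST fusion (coated from 10 μg/mL) during 15 minutes at 37° C. Product was detected with Eu-N1 PT66 anti-phosphotyrosine antibody and measured by time-resolved fluorescence.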

Chain of baculovirus-expressed ALK (Q9UM73 19-1620): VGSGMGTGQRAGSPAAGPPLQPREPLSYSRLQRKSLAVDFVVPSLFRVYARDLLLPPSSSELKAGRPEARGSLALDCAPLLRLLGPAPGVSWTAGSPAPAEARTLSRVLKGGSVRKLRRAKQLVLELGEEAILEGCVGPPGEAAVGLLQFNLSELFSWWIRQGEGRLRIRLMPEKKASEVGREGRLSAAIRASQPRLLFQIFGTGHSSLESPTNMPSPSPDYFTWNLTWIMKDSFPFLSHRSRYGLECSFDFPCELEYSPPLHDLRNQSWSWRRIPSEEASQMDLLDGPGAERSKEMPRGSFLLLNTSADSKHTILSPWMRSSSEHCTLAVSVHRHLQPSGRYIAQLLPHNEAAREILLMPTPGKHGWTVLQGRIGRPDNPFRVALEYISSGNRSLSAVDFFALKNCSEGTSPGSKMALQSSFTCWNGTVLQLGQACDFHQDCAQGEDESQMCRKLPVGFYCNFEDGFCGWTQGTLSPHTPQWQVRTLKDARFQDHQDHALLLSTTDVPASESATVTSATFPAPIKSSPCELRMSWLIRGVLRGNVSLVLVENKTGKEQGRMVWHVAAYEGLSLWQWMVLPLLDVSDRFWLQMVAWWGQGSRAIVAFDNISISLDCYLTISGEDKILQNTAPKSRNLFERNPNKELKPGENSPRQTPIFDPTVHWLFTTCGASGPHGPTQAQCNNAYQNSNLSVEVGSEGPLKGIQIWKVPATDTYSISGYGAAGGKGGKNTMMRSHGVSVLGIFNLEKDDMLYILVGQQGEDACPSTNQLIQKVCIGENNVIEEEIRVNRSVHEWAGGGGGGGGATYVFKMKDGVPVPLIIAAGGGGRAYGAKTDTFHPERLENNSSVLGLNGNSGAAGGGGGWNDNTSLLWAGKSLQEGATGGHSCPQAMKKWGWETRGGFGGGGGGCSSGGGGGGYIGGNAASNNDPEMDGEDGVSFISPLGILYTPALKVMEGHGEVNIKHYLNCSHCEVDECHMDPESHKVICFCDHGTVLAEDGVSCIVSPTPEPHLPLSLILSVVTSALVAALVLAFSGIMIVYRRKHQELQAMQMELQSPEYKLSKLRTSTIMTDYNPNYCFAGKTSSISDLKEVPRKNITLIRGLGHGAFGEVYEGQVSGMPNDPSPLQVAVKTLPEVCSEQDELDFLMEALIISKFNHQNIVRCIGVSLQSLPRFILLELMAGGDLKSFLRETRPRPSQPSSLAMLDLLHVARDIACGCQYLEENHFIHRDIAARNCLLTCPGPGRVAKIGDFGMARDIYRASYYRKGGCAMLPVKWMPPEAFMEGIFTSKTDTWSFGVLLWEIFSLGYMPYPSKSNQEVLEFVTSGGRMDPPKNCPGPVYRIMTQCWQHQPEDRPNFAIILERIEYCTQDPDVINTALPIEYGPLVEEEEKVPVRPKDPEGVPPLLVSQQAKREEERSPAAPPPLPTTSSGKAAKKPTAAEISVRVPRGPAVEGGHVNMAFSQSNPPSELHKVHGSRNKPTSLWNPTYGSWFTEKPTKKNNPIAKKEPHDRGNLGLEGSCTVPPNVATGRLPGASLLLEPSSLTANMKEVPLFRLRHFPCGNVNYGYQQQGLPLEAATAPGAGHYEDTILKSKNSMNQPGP
T1 sequence (P08581 956-1390 limits assumed): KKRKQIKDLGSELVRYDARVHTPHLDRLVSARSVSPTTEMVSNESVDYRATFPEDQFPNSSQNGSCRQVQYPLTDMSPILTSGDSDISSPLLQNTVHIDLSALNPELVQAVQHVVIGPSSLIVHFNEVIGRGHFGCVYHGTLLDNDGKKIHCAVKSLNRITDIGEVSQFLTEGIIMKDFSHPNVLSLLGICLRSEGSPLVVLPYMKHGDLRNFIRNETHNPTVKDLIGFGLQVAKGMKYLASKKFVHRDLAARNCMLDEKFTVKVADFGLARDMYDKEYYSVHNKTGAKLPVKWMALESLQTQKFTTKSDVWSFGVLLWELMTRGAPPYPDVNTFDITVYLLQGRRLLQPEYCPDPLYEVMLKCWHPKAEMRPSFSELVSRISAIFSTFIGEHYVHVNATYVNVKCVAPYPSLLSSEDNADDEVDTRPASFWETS

As to `O=C(NCCc1ccccc1)c1cnc2c(c1)N(Cc1cc(Cl)ccc1Cl)CCN2` [Example 253, 1-(2,5-Dichlorobenzyl)-1,2,3,4-tetrahydropyrido[2,3-b]pyrazine-7-carboxylic acid phenethyl-amide], the figures for the IC50 in test [1] and in test [2] were > 100 µM and 0.1 to 1 µM, respectively.

Regarding `O=C(NCC1CCCO1)c1cnc2c(c1)N(Cc1cc(Cl)ccc1Cl)CCN2` (centres unmarked) [Example 254, 1-(2,5-Dichlorobenzyl)-1,2,3,4-tetrahydropyrido[2,3-b]pyrazine-7-carboxylic acid (tetrahydrofuran-2-yl-methyl)amide], the IC50 in test [1] was > 100 µM; in test [2] it was 1 to 10 µM.

With `O=C(c1cnc2c(c1)N(Cc1cc(Cl)ccc1Cl)CCN2)N1CCN(Cc2ccc(Cl)cc2)CC1` [Example 255, [4-(4-Chlorobenzyl)piperazin-1-yl]-[1-(2,5-dichlorobenzyl)-1,2,3,4-tetrahydropyrido[2,3-b]pyrazin-7-yl]methanone], the IC50 is > 100 µM in test [1] and 1 to 10 µM in test [2].

Take `O=C(NCc1ccccc1Cl)c1cnc2c(c1)N(Cc1cc(Cl)ccc1Cl)CCN2` [Example 256, 1-(2,5-Dichlorobenzyl)-1,2,3,4-tetrahydropyrido[2,3-b]pyrazine-7-carboxylic acid 2-chloro-benzylamide]: the IC50 was > 100 µM in test [1] and 1 to 10 µM in test [2].

Regarding `O=C(c1cnc2c(c1)N(Cc1cc(Cl)ccc1Cl)CCN2)N1CCN(c2ccccc2C(F)(F)F)CC1` [Example 257, [1-(2,5-Dichlorobenzyl)-1,2,3,4-tetrahydropyrido[2,3-b]pyrazin-7-yl]-[4-(2-(trifluoromethyl)phenyl)piperazin-1-yl]methanone], the half-maximal inhibitory concentration (IC50) was > 100 µM in test [1] and 10 to 100 µM in test [2].

On to `COc1ccc(CNC(=O)c2cnc3c(c2)N(Cc2cc(Cl)ccc2Cl)CCN3)cc1` [Example 258, 1-(2,5-Dichlorobenzyl)-1,2,3,4-tetrahydropyrido[2,3-b]pyrazine-7-carboxylic acid 4-methoxybenzylamide], for which the IC50 in test [1] was > 100 µM; in test [2], 1 to 10 µM.

Consider `O=C(NC1Cc2ccccc2C1)c1cnc2c(c1)N(Cc1cc(Cl)ccc1Cl)CCN2` [Example 259, 1-(2,5-Dichlorobenzyl)-1,2,3,4-tetrahydropyrido[2,3-b]pyrazine-7-carboxylic acid indan-2-ylamide], for which the figures for the IC50 in test [1] and in test [2] were > 100 µM and 1 to 10 µM, respectively.

As to `O=C(c1cnc2c(c1)N(Cc1cc(Cl)ccc1Cl)CCN2)N1CCN(CCc2ccccc2)CC1` [Example 260, [1-(2,5-Dichlorobenzyl)-1,2,3,4-tetrahydropyrido[2,3-b]pyrazin-7-yl]-(4-phenethyl-piperazin-1-yl)methanone], the IC50 was > 100 µM in test [1] and 1 to 10 µM in test [2].

In the case of `O=C(c1cnc2c(c1)N(Cc1cc(Cl)ccc1Cl)CCN2)N1CCN(c2ccccc2Cl)CC1` [Example 261, [4-(2-Chlorophenyl)piperazin-1-yl]-[1-(2,5-dichlorobenzyl)-1,2,3,4-tetrahydropyrido[2,3-b]pyrazin-7-yl]methanone], the IC50 in test [1] is > 100 µM; in test [2] it was 1 to 10 µM.

Regarding `O=C(c1cnc2c(c1)N(Cc1cc(Cl)ccc1Cl)CCN2)N1CCN(CC2CCCCC2)CC1` [Example 262, [(4-Cyclohexylmethyl)piperazin-1-yl]-[1-(2,5-dichlorobenzyl)-1,2,3,4-tetrahydropyrido[2,3-b]pyrazin-7-yl]methanone], the IC50 in test [1] was > 100 µM; in test [2], 10 to 100 µM.

`NS(=O)(=O)c1ccc(CNC(=O)c2cnc3c(c2)N(Cc2cc(Cl)ccc2Cl)CCN3)cc1` [Example 263, 1-(2,5-Dichlorobenzyl)-1,2,3,4-tetrahydropyrido[2,3-b]pyrazine-7-carboxylic acid 4-sulfamoyl-benzylamide]: the IC50 in test [1] is > 100 µM; in test [2], 1 to 10 µM.

On to `O=C(c1cnc2c(c1)N(Cc1cc(Cl)ccc1Cl)CCN2)N1CCCC1c1cccnc1` (centres unmarked) [Example 264, [1-(2,5-Dichlorobenzyl)-1,2,3,4-tetrahydropyrido[2,3-b]pyrazin-7-yl]-(2-pyridin-3-yl-pyrrolidin-1-yl)methanone], for which the IC50 in test [1] was > 100 µM; in test [2], 1 to 10 µM.

As to `CN1CCN(C(=O)c2ccc(-c3cnc4c(c3)C(O)CCN4)cc2)CC1` (centres unmarked) [Example 270, [4-(5-Hydroxy-5,6,7,8-tetrahydro-[1,8]naphthyridin-3-yl)phenyl]-(4-methyl-piperazin-1-yl)methanone], the IC50 in test [1] and in test [2] was > 100 µM throughout.

Turning to `Clc1cccc(OC2CCNc3ncc(Br)cc32)c1` (centres unmarked) [Example 271, 6-Bromo-4-(3-chlorophenoxy)-1,2,3,4-tetrahydro-[1,8]naphthyridine], the IC50 in test [1] is 10 to 100 µM; in test [2] it was > 100 µM.

As for `CN1CCN(C(=O)c2ccc(-c3cnc4c(c3)C(Oc3cc(Cl)ccc3Cl)CCN4)cc2)CC1` (centres unmarked) [Example 272, {4-[5-(2,5-Dichlorophenoxy)-5,6,7,8-tetrahydro-[1,8]naphthyridin-3-yl]phenyl}-(4-methyl-piperazin-1-yl)methanone], the figures for the IC50 in test [1] and in test [2] were 1 to 10 µM and 0.1 to 1 µM, respectively.

Consider `CN1CCN(c2ccc(-c3cnc4c(c3)C(Oc3c(F)ccc(F)c3Cl)CCN4)cn2)CC1` (centres unmarked) [Example 273, 4-(2-Chloro-3,6-difluorophenoxy)-6-[6-(4-methylpiperazin-1-yl)pyridin-3-yl]-1,2,3,4-tetrahydro-[1,8]naphthyridine], for which the IC50 in test [1] and in test [2] was 10 to 100 µM throughout.

Regarding `CN1CCN(C(=O)c2ccc(-c3cnc4c(c3)C(Oc3cccc(Cl)c3)CCN4)cc2)CC1` (centres unmarked) [Example 274, {4-[5-(3-Chlorophenoxy)-5,6,7,8-tetrahydro-[1,8]naphthyridin-3-yl]-phenyl}-(4-methylpiperazin-1-yl)methanone], the IC50 in test [1] and in test [2] was 1 to 10 µM in each case.

For `CN1CCN(C(=O)c2ccc(-c3cnc4c(c3)C(Oc3cc(Cl)cc(Cl)c3)CCN4)cc2)CC1` (centres unmarked) [Example 275, {4-[5-(3,5-Dichlorophenoxy)-5,6,7,8-tetrahydro-[1,8]naphthyridin-3-yl]phenyl}-(4-methylpiperazin-1-yl)methanone], the figures for the IC50 in test [1] and in test [2] were 1 to 10 µM and 10 to 100 µM, respectively.

In the case of `CN1CCN(C(=O)c2ccc(-c3cnc4c(c3)C(Oc3cccnc3)CCN4)cc2)CC1` (centres unmarked) [Example 276, (4-Methylpiperazin-1-yl)-{4-[5-(pyridine-3-yloxy)-5,6,7,8-tetrahydro-[1,8]naphthyridin-3-yl]phenyl}methanone], the IC50 in test [1] and in test [2] was 10 to 100 µM in each case.

For `CC(=O)c1ccc(F)cc1OC1CCNc2ncc(-c3ccc(C(=O)N4CCN(C)CC4)cc3)cc21` (centres unmarked) [Example 277, 1-(4-Fluoro-2-{6-[4-(4-methylpiperazine-1-carbonyl)phenyl]-1,2,3,4-tetrahydro-[1,8]naphthyridin-4-yloxy}phenyl)ethanone], the IC50 in test [1] and in test [2] was 10 to 100 µM in each case.

In the case of `CN1CCN(c2cc(-c3cnc4c(c3)C(Oc3cccc(Cl)c3)CCN4)ccn2)CC1` (centres unmarked) [Example 278, 4-(3-Chlorophenoxy)-6-[2-(4-methylpiperazin-1-yl)pyridin-4-yl]-1,2,3,4-tetrahydro-[1,8]naphthyridine], the IC50 in test [1] and in test [2] was 1 to 10 µM throughout.

Turning to `Clc1cccc(OC2CCNc3ncc(-c4cccc(N5CCOCC5)c4)cc32)c1` (centres unmarked) [Example 279, 4-(3-Chlorophenoxy)-6-(3-morpholin-4-yl-phenyl)-1,2,3,4-tetrahydro-[1,8]naphthyridine], the concentration for half-maximal inhibition (IC50) was in the range of 10 to 100 µM in test [1] and 1 to 10 µM in test [2].

For `CN1CCN(c2ccc(-c3cnc4c(c3)C(Oc3cccc(Cl)c3)CCN4)cn2)CC1` (centres unmarked) [Example 281, 4-(3-Chlorophenoxy)-6-[6-(4-methylpiperazin-1-yl)pyridin-3-yl]-1,2,3,4-tetrahydro-[1,8]naphthyridine], the results for the IC50 in test [1] and in test [2] were 1 to 10 µM and 0.1 to 1 µM, respectively.

Turning to `CN1CCN(c2ccc(-c3cnc4c(c3)C(Cc3cc(F)ccc3F)CCN4)cn2)CC1` (centres unmarked) [Example 286, 4-(2,5-Difluorobenzyl)-6-[6-(4-methylpiperazin-1-yl)pyridin-3-yl]-1,2,3,4-tetrahydro-[1,8]naphthyridine], the 50% inhibitory concentration (IC50) in test [1] was > 100 µM; in test [2] it was 1 to 10 µM.

Regarding `FC(F)(F)c1ccc(CN2CCNc3ncc(-c4ccc(N5CCOCC5)nc4)cc32)o1` [Example 292, 7-(6-Morpholin-4-yl-pyridin-3-yl)-1-[5-(trifluoromethyl)furan-2-ylmethyl]-1,2,3,4-tetrahydropyrido[2,3-b]pyrazine], the values for the IC50 in test [1] and in test [2] were > 100 µM and 1 to 10 µM, respectively.

As to `CN1CCN(c2cc(-c3cnc4c(c3)N(Cc3ccc(C(F)(F)F)o3)CCN4)ccn2)CC1` [Example 293, 7-[2-(4-Methylpiperazin-1-yl)pyridin-4-yl]-1-[5-(trifluoromethyl)furan-2-ylmethyl]-1,2,3,4-tetrahydropyrido[2,3-b]pyrazine], the IC50 in test [1] and in test [2] was 1 to 10 µM in each case.

In the case of `O=C(O)c1ccc(-c2cnc3c(c2)N(Cc2cccnc2Cl)CCN3)cc1` [Example 302, 4-[1-(2-Chloropyridin-3-ylmethyl)-1,2,3,4-tetrahydropyrido[2,3-b]pyrazin-7-yl]benzoic acid], the IC50 in test [1] and in test [2] was > 100 µM in each case.

`O=C(c1ccc(-c2cnc3c(c2)N(Cc2cccnc2Cl)CCN3)cc1)N1CCC(N2CCCC2)CC1` [Example 303, {4-[1-(2-Chloropyridin-3-ylmethyl)-1,2,3,4-tetrahydropyrido[2,3-b]pyrazin-7-yl]phenyl}-(4-pyrrolidin-1-yl-piperidin-1-yl)methanone]: the IC50 in test [1] and in test [2] was > 100 µM in each case.

Values taken from patent US7601716B2, “Pyridopyrazines and derivatives thereof as ALK and c-Met inhibitors” (Cephalon, Inc., priority 2006, dated 2009).
